The target of this assay is MEK. The assay can be described thus: Cascade assay for inhibitors of the MAP kinase pathway (In Vitro). The assay is classed as biochemical. As for the experimental part: Incorporation of ^32P into myelin basic protein (MBP) was assayed in the presence of a glutathione S-transferase fusion protein containing p44MAP kinase (GST-MAPK) and a glutathione S-transferase fusion protein containing p45MEK (GST-MEK). The assay solution contained 20 mM HEPES, pH 7.4, 10 mM MgCl2, 1-mM MnCl2, 1 mM EGTA, 50 µM [γ-^32P]ATP, 10 µg GST-MEK, 0.5 µg GST-MAPK and 40 µg MBP in a final volume of 100 µL. […] Compounds were assessed at 10 µM for ability to inhibit incorporation of ^32P.
To ascertain whether compounds were inhibiting GST-MEK or GST MAPK, two additional protocols were employed. In the first protocol, compounds were added to tubes containing GST-MEK, followed by addition of GST-MAPK, MBP and [γ-^32P]ATP.
As for “5-Bromo-3,4-difluoro-2-(4-iodo-2-methyl-phenylamino)-N-(2-piperidin-1-yl-ethyl)-benzamide [Example 55]”, the IC50 – broadly, the midpoint of a concentration-inhibition curve – was 114 nM.

On to “5-Bromo-3,4-difluoro-N-(2-hydroxy-ethyl)-2-(4-iodo-2-methyl-phenylamino)-benzamide [Example 53]”, for which the IC50 was found to be 47 nM.

Turning to “5-Fluoro-N-{3-[4-(2-hydroxy-ethyl)-piperazin-1-yl]-propyl}-2-(4-iodo-2-methyl-phenylamino)-benzamide [Example 90]”, half-maximal inhibition (IC50) required 604 nM.

The compound `Cc1cc(I)ccc1Nc1cc(F)ccc1C(=O)O` [Example 1, 4-Fluoro-2-(4-iodo-2-methylphenylamino)benzoic acid] returned an IC50 of 19 nM.

With `O=C(O)c1cc(Cl)ccc1Nc1ccc(I)cc1Cl` [Example 5, 5-Chloro-2-(2-chloro-4-iodo-phenylamino)-benzoic acid], the IC50 was found to be 66 nM.

For the compound `Cc1cc(I)ccc1Nc1ccc(Cl)cc1C(=O)O` [Example 6, 5-Chloro-2-(4-iodo-2-methyl-phenylamino)-benzoic acid], the IC50 was 71 nM.

On to `Cc1cc(I)ccc1Nc1ccc(Br)cc1C(=O)O` [Example 8, 5-Bromo-2-(4-iodo-2-methyl-phenylamino)-benzoic acid], for which it took 86 nM to reach half-maximal inhibition (IC50).

`O=C(O)c1cc([N+](=O)[O-])ccc1Nc1ccc(I)cc1Cl` [Example 9, 2-(2-Chloro-4-iodo-phenylamino)-5-nitro-benzoic acid] had a half-inhibitory concentration (IC50) of 97 nM.

As to `Cc1c(Nc2cc(F)ccc2C(=O)O)ccc(I)c1F` [Example 10, 4-Fluoro-2-(3-fluoro-4-iodo-2-methyl-phenylamino)-benzoic acid], the IC50 came to 101 nM.

The compound `Cc1cc(I)ccc1Nc1ccc([N+](=O)[O-])cc1C(=O)O` [Example 11, 2-(4-Iodo-2-methyl-phenylamino)-5-nitro-benzoic acid] yielded an IC50 of 128 nM.

In the case of `O=C(O)c1cc([N+](=O)[O-])ccc1Nc1ccc(I)cc1F` [Example 12, 2-(2-Fluoro-4-iodo-phenylamino)-5-nitro-benzoic acid], half-maximal inhibition (IC50) was put at 135 nM.

`Cc1cc(Br)ccc1Nc1cc(F)ccc1C(=O)O` [Example 13, 2-(4-Bromo-2-methyl-phenylamino)-4-fluoro-benzoic acid] yielded an IC50 of 178 nM.

In the case of `O=C(O)c1cc([N+](=O)[O-])ccc1Nc1ccc(I)cc1Br` [Example 14, 2-(2-Bromo-4-iodo-phenylamino)-5-nitro-benzoic acid], the IC50 was determined as 179 nM.

Compound `Cc1cc(Br)ccc1Nc1c(C(=O)O)ccc(F)c1F` [Example 15, 2-(4-Bromo-2-methyl-phenylamino)-3,4-difluoro-benzoic acid] came in with an IC50 of 194 nM.

The compound `Cc1cc(I)ccc1Nc1c(F)cccc1C(=O)O` [Example 16, 3-Fluoro-2-(4-iodo-2-methyl-phenylamino)-benzoic acid] had an IC50 of 323 nM.

In turn, `COc1cc(I)ccc1Nc1c(C(=O)O)ccc(F)c1F` [Example 17, 3,4-Difluoro-2-(4-iodo-2-methoxy-phenylamino)-benzoic acid] gave an IC50 of 434 nM.

Turning to `Cc1cc(I)ccc1Nc1cc(Cl)ccc1C(=O)O` [Example 18, 4-Chloro-2-(4-iodo-2-methyl-phenylamino)-benzoic acid], half-maximal inhibition (IC50) was put at 446 nM.

In the case of `Cc1cc(I)ccc1Nc1ccc(F)cc1C(=O)O` [Example 20, 5-Fluoro-2-(4-iodo-2-methyl-phenylamino)-benzoic acid], the IC50 is 557 nM.

For the compound `Cc1cc(I)ccc1Nc1ccc(I)cc1C(=O)O` [Example 21, 5-Iodo-2-(4-iodo-2-methyl-phenylamino)-benzoic acid], it took 569 nM to reach half-maximal inhibition (IC50).

`Cc1c(Nc2cc(F)ccc2C(=O)O)ccc(I)c1Cl` [Example 23, 4-Fluoro-2-(3-chloro-4-iodo-2-methyl-phenylamino)-benzoic acid] returned an IC50 of 1590 nM.

In the case of `COc1ccc(Nc2ccc(I)cc2)c(C(=O)O)c1` [Example 24, 2-(4-Iodo-phenylamino)-5-methoxy-benzoic acid], the midpoint of inhibition, the IC50, lay at 1940 nM.

Take `O=C(O)c1cccc(Cl)c1Nc1ccc(I)cc1Cl` [Example 25, 3-Chloro-2-(2-chloro-4-iodo-phenylamino)-benzoic acid]: the IC50 is 2360 nM.

On to `Cc1ccc(Nc2ccc(I)cc2C)c(C(=O)O)c1` [Example 28, 5-Methyl-2-(4-iodo-2-methyl-phenylamino)-benzoic acid], for which half-maximal inhibition (IC50) required 3670 nM.

Compound `Cc1cc(I)ccc1Nc1cccc(Cl)c1C(=O)O` [Example 29, 2-Chloro-6-(4-iodo-2-methyl-phenylamino)-benzoic acid] came in with an IC50 of 5330 nM.

In turn, `Cc1cc(I)ccc1Nc1ccc(Cl)cc1C(=O)NCCO` [Example 31, 5-Chloro-N-(2-hydroxyethyl)-2-(4-iodo-2-methyl-phenylamino)-benzamide] yielded an IC50 of 226 nM.

In the case of `COc1ccc(NC(=O)c2ccc(OC)c([N+](=O)[O-])c2)cc1` [Example 32, 4-Methoxy-N-(4-methoxy-phenyl)-3-nitro-benzamide], half-maximal inhibition (IC50) required 28 nM.

As to `Cc1cc(I)ccc1Nc1cc(F)ccc1C(N)=O` [Example 33, 4-Fluoro-2-(4-iodo-2-methyl-phenylamino)-benzamide], the midpoint of inhibition, the IC50, lay at 52 nM.

In the case of `CNC(=O)c1ccc(F)cc1Nc1ccc(I)cc1C` [Example 34, 4-Fluoro-2-(4-iodo-2-methyl-phenylamino)-N-methyl-benzamide], inhibition was half-maximal at 98 nM (IC50).

`CCNC(=O)c1ccc(F)cc1Nc1ccc(I)cc1C` [Example 35, N-Ethyl-4-fluoro-2-(4-iodo-2-methyl-phenylamino)-benzamide] came in with an IC50 of 121 nM.

`Cc1cc(I)ccc1Nc1cc(F)ccc1C(=O)N(C)C` [Example 36, 4-Fluoro-2-(4-iodo-2-methyl-phenylamino)-N,N-dimethyl-benzamide] had an IC50 of 129 nM.

`Cc1cc(I)ccc1Nc1cc(F)ccc1C(=O)Nc1nnn[nH]1` [Example 37, 4-Fluoro-2-(4-iodo-2-methyl-phenylamino)-N-(1H-tetrazol-5-yl)-benzamide] returned an IC50 of 237 nM.

For `Cc1cc(I)ccc1Nc1ccc(Br)cc1C(N)=O` [Example 38, 5-Bromo-2-(4-iodo-2-methyl-phenylamino)-benzamide], the IC50 was determined as 412 nM.

The compound `Cc1cc(I)ccc1Nc1ccc(Cl)cc1C(=O)N(C)C` [Example 39, 5-Chloro-2-(4-iodo-2-methyl-phenylamino)-N,N-dimethyl-benzamide] came in with an IC50 of 497 nM.

As for `Cc1cc(I)ccc1Nc1ccc(Cl)cc1C(=O)NCC(=O)O` [Example 40], the IC50 turned out to be 651 nM.

The compound `CCCNC(=O)c1ccc(F)cc1Nc1ccc(I)cc1C` [Example 41, 4-Fluoro-2-(4-iodo-2-methyl-phenylamino)-N-propyl-benzamide] showed an IC50 of 872 nM.

The compound `Cc1cc(I)ccc1Nc1ccc(Br)cc1C(=O)NCCO` [Example 42, 5-Bromo-N-(2-hydroxy-ethyl)-2-(4-iodo-2-methyl-phenylamino)-benzamide] displayed an IC50 of 920 nM.

Compound `CCN(CC)C(=O)c1ccc(F)cc1Nc1ccc(I)cc1C` [Example 43, N,N-Diethyl-4-fluoro-2-(4-iodo-2-methyl-phenylamino)-benzamide] displayed an IC50 of more than 1000 nM.

In turn, `Cc1cc(I)ccc1Nc1cc(F)ccc1C(=O)NCCCN1CCN(CCO)CC1` [Example 44, 4-Fluoro-N-{3-[4-(2-hydroxy-ethyl)-piperazin-1-yl]-propyl}-2-(4-iodo-2-methyl-phenylamino)-benzamide] yielded an IC50 of 1480 nM.

Compound `CCN(CC)C(=O)c1cc([N+](=O)[O-])ccc1Nc1ccc(I)cc1C` [Example 45, N,N-Diethyl-2-(4-iodo-2-methyl-phenylamino)-5-nitro-benzamide] returned an IC50 of 1760 nM.

In the case of `CCCCNC(=O)c1ccc(F)cc1Nc1ccc(I)cc1C` [Example 46, N-Butyl-4-fluoro-2-(4-iodo-2-methyl-phenylamino)-benzamide], the IC50 amounted to 1810 nM.

In turn, `CCN(CC)C(=O)c1cc(Cl)ccc1Nc1ccc(I)cc1C` [Example 47, 5-Chloro-N,N-diethyl-2-(4-iodo-2-methyl-phenylamino)-benzamide] displayed an IC50 of 1910 nM.

As for `Cc1cc(I)ccc1Nc1ccc(Br)cc1C(=O)N(C)C` [Example 48, 5-Bromo-2-(4-iodo-2-methyl-phenylamino)-N,N-dimethyl-benzamide], half-maximal inhibition (IC50) was put at 1940 nM.

`Cc1cc(I)ccc1Nc1ccc(Cl)cc1CO` [Example 50, [5-Chloro-2-(4-iodo-2-methyl-phenylamino)-phenyl]-methanol] returned an IC50 of 179 nM.

`Cc1cc(I)ccc1Nc1ccc([N+](=O)[O-])cc1CO` [Example 51, [2-(4-Iodo-2-methyl-phenylamino)-5-nitro-phenyl]-methanol]: the IC50 amounted to 887 nM.

As for `Cc1cc(I)ccc1Nc1ccc(Br)cc1CO` [Example 52, [5-Bromo-2-(4-iodo-2-methyl-phenylamino)-phenyl]-methanol], half-maximal inhibition (IC50) was put at 2350 nM.

With `Cc1cc(I)ccc1Nc1ccc(Br)cc1C(=O)NCCCN1CCN(CCO)CC1` [Example 92, 5-Bromo-N-{3-[4-(2-hydroxy-ethyl)-piperazin-1-yl]-propyl}-2-(4-iodo-2-methyl-phenylamino)-benzamide], the IC50 amounted to 253 nM.

For the compound `CCN(CC)CCNC(=O)c1cc(Cl)ccc1Nc1ccc(I)cc1C` [Example 93, 5-Chloro-N-(2-diethylamino-ethyl)-2-(4-iodo-2-methyl-phenylamino)-benzamide], inhibition was half-maximal at 521 nM (IC50).

Regarding `Cc1cc(I)ccc1Nc1ccc([N+](=O)[O-])cc1C(=O)N1CCC(O)C1` (stereo not drawn) [Example 95, (3-Hydroxy-pyrrolidin-1-yl)-[2-(4-iodo-2-methyl-phenylamino)-5-nitro-phenyl]-methanone], 1000 nM corresponded to half-maximal inhibition (IC50).

(Values after EP0993437B1, “2-(4-BROMO OR 4-IODO PHENYLAMINO) BENZOIC ACID DERIVATIVES AND THEIR USE AS MEK INHIBITORS” (Warner-Lambert Company LLC, priority 1997, dated 1999).)
